Patent publication US10202361B2, “Pyridazinones as herbicides” (E I DU PONT DE NEMOURS AND COMPANY, priority 2014, dated 2019)

Tests used:
Assay in all cases: Test D pre-/postemergence controlled growth environment herbicide test
Type in all cases: in vivo
Conditions in all cases: scale 0 to 100
[1] = test system: downy bromegrass (Bromus tectorum)
From the text: (§1) Seeds of plant species selected from bluegrass (annual bluegrass, Poa annua), blackgrass (Alopecurus myosuroides), canarygrass (Phalaris minor), chickweed (common chickweed, Stellaria media), galium (catchweed bedstraw, Galium aparine), downy bromegrass (Bromus tectorum), field poppy (Papaver rhoeas), field violet (Viola arvensis), foxtail, green (green foxtail, Setaria viridis), deadnettle (henbit deadnettle, Lamium amplexicaule), ryegrass, Italian (Italian ryegrass, Lolium multiflorum), kochia (Kochia scoparia), lambsquarters (Chenopodium album), oilseed rape (Brassica napus), pigweed (Amaranthus retroflexus), chamomile (scentless chamomile, Matricaria inodora), Russian thistle (Salsola kali), speedwell (bird's-eye speedwell, Veronica persica), barley, spring (spring barley, Hordeum vulgare), wheat, spring (spring wheat, Triticum aestivum), buckwheat, wild (wild buckwheat, Polygonum convolvulus), mustard, wild (wild mustard, Sinapis arvensis), oat, wild (wild oat, Avena fatua), radish, wild (wild radish, Raphanus raphanistrum), windgrass (Apera spica-venti), barley, winter (winter barley, Hordeum vulgare), and wheat, winter (winter wheat, Triticum aestivum) were planted into a silt loam soil and treated preemergence with test chemicals formulated in a non-phytotoxic solvent mixture which included a surfactant.
(§2) At the same time, these species were planted in pots containing Redi-Earth® planting medium (Scotts Company, 14111 Scottslawn Road, Marysville, Ohio 43041) comprising spaghnum peat moss, vermiculite, wetting agent and starter nutrients and treated with postemergence applications of the test chemicals formulated in the same manner. Plants ranged in height from 2 to 18 cm (1- to 4-leaf stage). Treated plants and controls were maintained in a controlled growth environment for 14 to 21 d after which time all species were compared to controls and visually evaluated. Plant response ratings, summarized in Table D, are based on a scale of 0 to 100 where 0 is no effect and 100 is complete control. A dash (-) response means no test result.

[2] = test system: wheat, spring (spring wheat, Triticum aestivum)
From the text: as §1, §2

[3] = test system: galium (catchweed bedstraw, Galium aparine)
From the text: as §1, §2

[4] = test system: wheat, winter (winter wheat, Triticum aestivum)
From the text: as §1, §2

[5] = test system: barley, winter (winter barley, Hordeum vulgare)
From the text: as §1, §2

[6] = test system: bluegrass (annual bluegrass, Poa annua)
From the text: as §1, §2

[7] = test system: ryegrass, Italian (Italian ryegrass, Lolium multiflorum)
From the text: as §1, §2

[8] = test system: barley, spring (spring barley, Hordeum vulgare)
From the text: as §1, §2

[9] = test system: deadnettle (henbit deadnettle, Lamium amplexicaule)
From the text: as §1, §2

[10] = test system: windgrass (Apera spica-venti)
From the text: as §1, §2

[11] = test system: chamomile (scentless chamomile, Matricaria inodora)
From the text: as §1, §2

Compound: Cc1cc(=O)n(-c2ccc(F)cc2)nc1Oc1ccnc(C(F)(F)F)c1 [Compound 14, 2-(4-fluorophenyl)-5-methyl-6-[[2-(trifluoromethyl)-4-pyridinyl]oxy]-3 (2H)-pyridazinone]
- Plant response rating ([1]; Postemergence, 16 g ai/ha): 10
- Plant response rating ([1]; Postemergence, 31 g ai/ha): 10
- Plant response rating ([1]; Postemergence, 62 g ai/ha): 10
- Plant response rating ([1]; Postemergence, 125 g ai/ha): 20
- Plant response rating ([1]; Postemergence, 250 g ai/ha): 20
- Plant response rating ([1]; Preemergence, 16 g ai/ha): 0
- Plant response rating ([1]; Preemergence, 31 g ai/ha): 0
- Plant response rating ([1]; Preemergence, 62 g ai/ha): 0
- Plant response rating ([1]; Preemergence, 125 g ai/ha): 0
- Plant response rating ([1]; Preemergence, 250 g ai/ha): 0
- Plant response rating ([2]; Postemergence, 16 g ai/ha): 5
- Plant response rating ([2]; Postemergence, 31 g ai/ha): 10
- Plant response rating ([2]; Postemergence, 62 g ai/ha): 15
- Plant response rating ([2]; Postemergence, 125 g ai/ha): 15
- Plant response rating ([2]; Postemergence, 250 g ai/ha): 15
- Plant response rating ([2]; Preemergence, 16 g ai/ha): 0
- Plant response rating ([2]; Preemergence, 31 g ai/ha): 0
- Plant response rating ([2]; Preemergence, 62 g ai/ha): 0
- Plant response rating ([2]; Preemergence, 125 g ai/ha): 10
- Plant response rating ([2]; Preemergence, 250 g ai/ha): 15
- Plant response rating ([3]; Postemergence, 16 g ai/ha): 60
- Plant response rating ([3]; Postemergence, 31 g ai/ha): 60
- Plant response rating ([3]; Postemergence, 62 g ai/ha): 60
- Plant response rating ([3]; Postemergence, 125 g ai/ha): 65
- Plant response rating ([3]; Postemergence, 250 g ai/ha): 75
- Plant response rating ([3]; Preemergence, 16 g ai/ha): 0
- Plant response rating ([3]; Preemergence, 31 g ai/ha): 0
- Plant response rating ([3]; Preemergence, 62 g ai/ha): 0
- Plant response rating ([3]; Preemergence, 125 g ai/ha): 5
- Plant response rating ([4]; Postemergence, 16 g ai/ha): 5
- Plant response rating ([4]; Postemergence, 31 g ai/ha): 10
- Plant response rating ([4]; Postemergence, 62 g ai/ha): 15
- Plant response rating ([4]; Postemergence, 125 g ai/ha): 15
- Plant response rating ([4]; Postemergence, 250 g ai/ha): 15
- Plant response rating ([4]; Preemergence, 16 g ai/ha): 0
- Plant response rating ([4]; Preemergence, 31 g ai/ha): 5
- Plant response rating ([4]; Preemergence, 62 g ai/ha): 5
- Plant response rating ([4]; Preemergence, 125 g ai/ha): 5
- Plant response rating ([4]; Preemergence, 250 g ai/ha): 10
- Plant response rating ([5]; Postemergence, 16 g ai/ha): 10
- Plant response rating ([5]; Postemergence, 31 g ai/ha): 15
- Plant response rating ([5]; Postemergence, 62 g ai/ha): 20
- Plant response rating ([5]; Postemergence, 125 g ai/ha): 20
- Plant response rating ([5]; Postemergence, 250 g ai/ha): 25
- Plant response rating ([5]; Preemergence, 16 g ai/ha): 15
- Plant response rating ([5]; Preemergence, 31 g ai/ha): 5
- Plant response rating ([5]; Preemergence, 62 g ai/ha): 5
- Plant response rating ([5]; Preemergence, 125 g ai/ha): 5
- Plant response rating ([5]; Preemergence, 250 g ai/ha): 5
- Plant response rating ([6]; Postemergence, 16 g ai/ha): 15
- Plant response rating ([6]; Postemergence, 31 g ai/ha): 20
- Plant response rating ([6]; Postemergence, 62 g ai/ha): 20
- Plant response rating ([6]; Postemergence, 125 g ai/ha): 15
- Plant response rating ([6]; Postemergence, 250 g ai/ha): 30
- Plant response rating ([6]; Preemergence, 16 g ai/ha): 5
- Plant response rating ([6]; Preemergence, 31 g ai/ha): 0
- Plant response rating ([6]; Preemergence, 62 g ai/ha): 0
- Plant response rating ([6]; Preemergence, 125 g ai/ha): 10
- Plant response rating ([6]; Preemergence, 250 g ai/ha): 35
- Plant response rating ([7]; Postemergence, 16 g ai/ha): 5
- Plant response rating ([7]; Postemergence, 31 g ai/ha): 5
- Plant response rating ([7]; Postemergence, 62 g ai/ha): 10
- Plant response rating ([7]; Postemergence, 125 g ai/ha): 15
- Plant response rating ([7]; Postemergence, 250 g ai/ha): 15
- Plant response rating ([7]; Preemergence, 16 g ai/ha): 0
- Plant response rating ([7]; Preemergence, 31 g ai/ha): 0
- Plant response rating ([7]; Preemergence, 62 g ai/ha): 0
- Plant response rating ([7]; Preemergence, 125 g ai/ha): 15
- Plant response rating ([7]; Preemergence, 250 g ai/ha): 25
- Plant response rating ([8]; Postemergence, 16 g ai/ha): 5
- Plant response rating ([8]; Postemergence, 31 g ai/ha): 10
- Plant response rating ([8]; Postemergence, 62 g ai/ha): 15
- Plant response rating ([8]; Postemergence, 125 g ai/ha): 20
- Plant response rating ([8]; Postemergence, 250 g ai/ha): 20
- Plant response rating ([8]; Preemergence, 16 g ai/ha): 5
- Plant response rating ([8]; Preemergence, 31 g ai/ha): 10
- Plant response rating ([8]; Preemergence, 62 g ai/ha): 5
- Plant response rating ([8]; Preemergence, 125 g ai/ha): 15
- Plant response rating ([8]; Preemergence, 250 g ai/ha): 5
- Plant response rating ([9]; Postemergence, 16 g ai/ha): 50
- Plant response rating ([9]; Postemergence, 31 g ai/ha): 60
- Plant response rating ([9]; Postemergence, 62 g ai/ha): 60
- Plant response rating ([9]; Postemergence, 125 g ai/ha): 65
- Plant response rating ([9]; Postemergence, 250 g ai/ha): 80
- Plant response rating ([9]; Preemergence, 16 g ai/ha): 60
- Plant response rating ([9]; Preemergence, 31 g ai/ha): 15
- Plant response rating ([9]; Preemergence, 62 g ai/ha): 40
- Plant response rating ([9]; Preemergence, 125 g ai/ha): 65
- Plant response rating ([9]; Preemergence, 250 g ai/ha): 100
- Plant response rating ([10]; Postemergence, 16 g ai/ha): 5
- Plant response rating ([10]; Postemergence, 31 g ai/ha): 5
- Plant response rating ([10]; Postemergence, 62 g ai/ha): 10
- Plant response rating ([10]; Postemergence, 125 g ai/ha): 10
- Plant response rating ([10]; Postemergence, 250 g ai/ha): 60
- Plant response rating ([10]; Preemergence, 16 g ai/ha): 10
- Plant response rating ([10]; Preemergence, 31 g ai/ha): 5
- Plant response rating ([10]; Preemergence, 62 g ai/ha): 5
- Plant response rating ([10]; Preemergence, 125 g ai/ha): 35
- Plant response rating ([10]; Preemergence, 250 g ai/ha): 65
- Plant response rating ([11]; Postemergence, 16 g ai/ha): 5
- Plant response rating ([11]; Postemergence, 31 g ai/ha): 10
- Plant response rating ([11]; Postemergence, 62 g ai/ha): 10
- Plant response rating ([11]; Postemergence, 125 g ai/ha): 20
- Plant response rating ([11]; Postemergence, 250 g ai/ha): 25
- Plant response rating ([11]; Preemergence, 16 g ai/ha): 5
- Plant response rating ([11]; Preemergence, 31 g ai/ha): 10
- Plant response rating ([11]; Preemergence, 62 g ai/ha): 25
- Plant response rating ([11]; Preemergence, 125 g ai/ha): 85
- Plant response rating ([11]; Preemergence, 250 g ai/ha): 80
